Experimental data from US7329782B2, “Compounds for the treatment of metabolic disorders” (Wellstat Therapeutics Corporation, priority 2001, dated 2008).

Assays:
[1] = system: mice challenged with multiple high doses of STZ; assay: Mortality in severe insulin-dependent diabetes, multiple high doses of STZ (Example C); assay type: in vivo, balb/C mice; conditions: STZ 75 mg/kg i.p. x 5 days, oral 30 mg/kg/day, after three weeks of daily treatment, 20 mice/group
Experimental: Female balb/C mice (19 wks of age at start of experiment) were challenged with multiple high doses of STZ (75 mg/kg i.p. on 5 consecutive days). Animals were then divided in two groups (20 mice/group) matched for severity of diabetes. Four days after the last dose of STZ, treatments were initiated. One group received Vehicle (0.4 ml of 0.75% HPMC, p.o.), and the other group received oral COMPOUND AA (30 mg/kg/day). After three weeks of daily treatment, cumulative mortality in the Vehicle Control group was 19/20 mice. In contrast, only 5/20 of the COMPOUND AA mice died during this time.

[2] = system: streptozotocin diabetic mice; assay: Streptozotocin diabetic mice treated with oral Compound AH for 14 weeks (Example A); assay type: in vivo, Balb/C mice; conditions: STZ diabetic mice, 250 mg/kg daily oral, after several weeks of treatment
Experimental: Streptozotocin (STZ) is a toxin that selectively destroys insulin-producing pancreatic beta cells, and is widely used to induce insulin-dependent diabetes in experimental animals.
Female Balb/C mice (8 weeks old; 18-20 grams body weight) were treated with streptozotocin (STZ) (50 mg/kg i.p. on each of five consecutive days). Fourteen days after the last dose of STZ, blood glucose was measured to verify that the animals were diabetic, and the mice were divided into two groups of 5 animals each, one group receiving Compound AH (250 mg/kg) daily by oral gavage, and the other receiving vehicle (0.75% hydroxypropylmethylcellulose, a suspending agent, in water). […] Blood samples were taken periodically for determination of blood glucose concentrations, and body weights were also recorded.

[3] = system: mice with severe insulin-dependent diabetes induced by streptozotocin; assay: Survival of mice with lethal insulin-dependent diabetes, single dose of streptozotocin (Example B); assay type: in vivo, Balb/C mice
Experimental: Female Balb/C mice (14 weeks old) were treated with a single dose of streptozotocin (175 mg/kg i.p.) to induce severe insulin-dependent diabetes. Seven days later, mice were divided into three treatment groups: Compound AH, pioglitazone, and vehicle. Mice were treated daily via oral gavage, and survival was monitored over time.

ob/ob mice [4] = assay: Acute hypoglycemic effect in ob/ob obese diabetic mice, Expt 2 (Example G); assay type: in vivo; conditions: Mus musculus, single oral dose 250 mg/kg, 6 hours, read-out: % Reduction vs Control
Experimental: Male ob/ob mice (50-55 grams; blood glucose ˜300 mg/dL) were divided into groups of five animals each, and given a single oral dose of test drug (250 mg/kg) suspended in 0.5% carboxymethylcellulose vehicle; a control group received oral vehicle alone. Six hours after oral administration of test drugs or vehicle (control), blood samples were obtained from a tail vein and glucose content was determined with a glucometer.

ob/ob mice [5] = system: ob/ob mice
Text: Male lean (ob/+ heterozygote) and obese (ob/ob homozygote) C57BL/6 mice approximately 8 weeks of age were obtained from Jackson Labs (Bar Harbor, Me.) and randomly assigned into groups of 5 animals such that body weights and blood glucose concentrations were similar between groups. […] Blood glucose was routinely determined with glucose test strips and a Glucometer Elite XL device (Bayer Corporation). At selected time points, blood samples (˜100 microliters) were obtained with a heparinized capillary tube via the retro-orbital sinus for serum chemistry analysis.
The dose ranges of compounds in this experiment were chosen to include both suboptimal and potentially supraoptimal doses.

[6] = system: high fat-fed C57B1/6J mice; assay: Circulating triglycerides, free fatty acids, insulin and leptin in high fat-fed C57B1/6J mice (Example L); assay type: in vivo; conditions: oral gavage, after 4 weeks of drug treatment
Text: The high fat-fed mouse is a model for the hypertriglyceridemia and high circulating fatty acid levels, and the insulin and leptin resistance that are found in people at risk for and with obesity, diabetes, cardiovascular disease and other disorders. Male C57B1/6J mice, approximately 8 weeks of age, were randomly assigned into groups of 6 animals. […] Mice were fed a high-fat diet (diet number D12451, containing 45% of calories as fat (Research Diets, New Brunswick, N.J.)) for 6 weeks. […]

[7] = system: high fat-fed Sprague Dawley rats; assay: Circulating glucose, insulin, triglycerides and free fatty acids in high fat-fed Sprague Dawley rats (Example M); assay type: in vivo; conditions: at all doses (10, 30 and 100 mg/kg)
Experimental: All animals were maintained in a temperature-controlled (25° C.) facility with a strict 12 h light/dark cycle and were given free access to water and food. Rats were fed a high-fat diet (diet number D12451 (containing 45% of calories as fat), Research Diets, New Brunswick, N.J.) for one month prior to drug treatment.
At the indicated time points, blood samples (˜100 μl) were obtained via the tail vein for serum chemistry analysis.

O=C(O)CCC(=O)c1ccc(OCc2ccccc2F)cc1 [Compound AA, 4-(4-(2-Fluorobenzyloxy)phenyl)-4-oxobutyric acid]
cumulative mortality (mice died) [1]: 5/20

O=C(O)CCC(=O)c1ccc(OCc2c(F)cccc2F)cc1 [Compound AH, 4-(4-(2,6-Difluorobenzyloxy)phenyl)-4-oxobutyric acid]
blood glucose concentrations [2]: began to decrease toward baseline | Survivors (Survival at 12 weeks) ([3]; STZ 175 mg/kg i.p. mice, daily oral gavage 250 mg/kg/day): Four of the five | body weights of survivors ([3]; at 12 weeks, 250 mg/kg/day oral): recovered and were maintained in the normal range

O=C(O)CCC(=O)c1cccc(OCc2c(F)cccc2F)c1 [Compound AW, 4-(3-(2,6-Difluorobenzyloxy)phenyl)-4-oxobutyric acid]
change in vivo at 250 mg/kg (ob/ob mice [4]): -53.1 ± 3.1% | serum triglycerides and fatty acids (ob/ob mice [5]; 100 to 300 mg/kg/day, versus comparators at their optimum antihyperglycemic doses): reduced serum triglycerides and fatty acids better than did either rosiglitazone or pioglitazone | reduction in blood glucose (ob/ob mice [5]; daily oral, over the dose range): comparable to that achieved with pioglitazone and rosiglitazone | serum liver enzymes (ALT, AST, SDH) (ob/ob mice [5]; doses ranging from 30 mg/kg/day to 300 mg/kg/day): dose-dependent decrease | weight gain relative to vehicle-treated mice (ob/ob mice [5]; four week treatment period, over the dose range): dose-dependent attenuation of weight gain

Cc1cccc(C)c1COc1cccc(C(=O)CCC(=O)O)c1 [Compound BI, 4-(3-(2,6-Dimethylbenzyloxy)phenyl)-4-oxobutyric acid]
insulin serum levels (FIG. 1) [6]: effective at lowering | leptin serum levels (FIG. 2) [6]: effective at lowering | free fatty acids [7]: reduced

Cc1cccc(C)c1COc1cccc(C(=O)CCC(=O)[O-])c1.[Na+] [Compound BL, 4-(3-(2,6-Dimethylbenzyloxy)phenyl)-4-oxobutyric acid Sodium salt]
insulin serum levels (FIG. 1) [6]: effective at lowering | leptin serum levels (FIG. 2) [6]: effective at lowering
